In patent US20170210738A1, “GLUCOSE TRANSPORT INHIBITORS” (Bayer Pharma Aktiengesellschaft, priority 2014, published 2017):

target: T1, GLUT1 (Homo sapiens, UniProt P11166); assay: Indirect measurement of GLUT activity by quantification of intracellular ATP levels: glucose induced ATP increase (GLUT1 inhibition); assay type: cell-based; conditions: DLD1 cells; 1 mM glucose, 1 uM Rotenone, 15 min; CellTiter-Glo ATP levels; IC50 values standardized to cytochalasin B IC50 values; read-out: IC50 regarding glucose induced ATP increase (GLUT1 inhibition)
T1 construct: endogenous in cells; host or cells: DLD1 or CHO-K1
T1 sequence (P11166 1-492): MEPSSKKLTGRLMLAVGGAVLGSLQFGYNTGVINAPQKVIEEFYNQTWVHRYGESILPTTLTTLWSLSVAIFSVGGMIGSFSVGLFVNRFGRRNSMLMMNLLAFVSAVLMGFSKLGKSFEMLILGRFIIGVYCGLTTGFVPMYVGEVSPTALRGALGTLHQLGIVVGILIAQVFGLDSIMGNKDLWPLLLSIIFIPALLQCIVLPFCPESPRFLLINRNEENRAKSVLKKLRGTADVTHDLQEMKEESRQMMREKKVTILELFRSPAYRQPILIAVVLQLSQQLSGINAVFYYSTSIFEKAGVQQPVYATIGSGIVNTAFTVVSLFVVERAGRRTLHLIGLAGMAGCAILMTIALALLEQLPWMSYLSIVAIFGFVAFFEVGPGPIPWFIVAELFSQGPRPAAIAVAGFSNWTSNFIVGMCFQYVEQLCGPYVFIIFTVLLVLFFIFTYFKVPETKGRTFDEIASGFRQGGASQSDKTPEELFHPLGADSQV
Text: Indirect Measurement of GLUT Activity by Quantification of Intracellular ATP Levels
It is well known that a combination of small-molecule inhibitors of mitochondrial electron transport chain and glucose catabolism synergistically suppress ATP production and impair cellular viability (Ulanovskaya et al., 2008, 2011; Liu, et al. 2001). We therefore used DLD1 or CHO-K1 cells in combination with an oxidative phosphorylation inhibitor to identify GLUT inhibitors. Cell lines were maintained in DMEM medium supplemented with 10% FCS and 1% Penicillin-Streptomycin solution and 2% Glutamax. The cells were treated with trypsin and seeded into 384 plates at a density of 4000 cells/well. The cells were then cultured overnight in glucose free media containing 1% FCS to reduce intracellular ATP levels. After 24 h the cells were incubated at 37° C. containing the appropriate glucose or in case of GLUT2 fructose concentration (1 mM and 30 mM respectively) with or without compounds and 1 uM Rotenone for 15 min. The CellTiter-Glo® Luminescent Cell Viability Assay from Promega was then used to measure ATP levels. Compounds able to reduce the ATP levels within 15 min of glucose application were considered to be glucose uptake inhibitors.

IC50	Structure (SMILES)
124 nM	Cc1c(NC(=O)c2cc(C(F)(F)F)nc3cc(F)c(F)cc23)cnn1Cc1ccc(F)cc1 [Example 2, 6,7-difluoro-N-[1-(4-fluorobenzyl)-5-methyl-1H-pyrazol-4-yl]-2-(trifluoromethyl)quinoline-4-carboxamide]
12 nM	Cc1c(NC(=O)c2cc(C(F)(F)F)nc3ccc(Br)cc23)cnn1Cc1ccc(F)cc1 [Example 4, 6-bromo-N-[1-(4-fluorobenzyl)-5-methyl-1H-pyrazol-4-yl]-2-(trifluoromethyl)quinoline-4-carboxamide]
91 nM	Cc1c(NC(=O)c2cc(C3CC3)nc3ccc(F)cc23)cnn1Cc1ccc(F)cc1 [Example 6, 2-cyclopropyl-6-fluoro-N-[1-(4-fluorobenzyl)-5-methyl-1H-pyrazol-4-yl]quinoline-4-carboxamide]
185 nM	Cc1c(NC(=O)c2cc(C(F)(F)F)nc3c(Cl)cc(Cl)cc23)cnn1Cc1ccc(F)cc1 [Example 7, 6,8-dichloro-N-[1-(4-fluorobenzyl)-5-methyl-1H-pyrazol-4-yl]-2-(trifluoromethyl)quinoline-4-carboxamide]
12 nM	Cc1c(NC(=O)c2cc(C(F)(F)F)nc3ccc(Br)cc23)cnn1Cc1ccc(C#N)cc1 [Example 8, 6-bromo-N-[1-(4-cyanobenzyl)-5-methyl-1H-pyrazol-4-yl]-2-(trifluoromethyl)quinoline-4-carboxamide]
4 nM	COc1ccc(Cn2ncc(NC(=O)c3cc(C(F)(F)F)nc4ccc(Br)cc34)c2C)cc1 [Example 12, 6-bromo-N-[1-(4-methoxybenzyl)-5-methyl-1H-pyrazol-4-yl]-2-(trifluoromethyl)quinoline-4-carboxamide]
173 nM	Cc1c(NC(=O)c2cc(C(F)(F)F)nc3ccc(Br)cc23)cnn1Cc1ccccc1C#N [Example 14, 6-bromo-N-[1-(2-cyanobenzyl)-5-methyl-1H-pyrazol-4-yl]-2-(trifluoromethyl)quinoline-4-carboxamide]
10200 nM	O=C(Nc1cnn(Cc2ccc(F)cc2)c1C(=O)O)c1cc(C(F)(F)F)nc2ccc(Br)cc12 [Example 17, 4-({[6-bromo-2-(trifluoromethyl)quinolin-4-yl]carbonyl}amino)-1-(4-fluorobenzyl)-1H-pyrazole-5-carboxylic acid]
1250 nM	NC(=O)c1c(NC(=O)c2cc(C(F)(F)F)nc3ccc(Br)cc23)cnn1Cc1ccc(F)cc1 [Example 18, 6-bromo-N-[5-carbamoyl-1-(4-fluorobenzyl)-1H-pyrazol-4-yl]-2-(trifluoromethyl)quinoline-4-carboxamide]
1070 nM	COC(=O)c1c(NC(=O)c2cc(C(F)(F)F)nc3ccc(Br)cc23)cnn1Cc1ccc(C#N)cc1 [Example 19, methyl 4-({[6-bromo-2-(trifluoromethyl)quinolin-4-yl]carbonyl}amino)-1-(4-cyanobenzyl)-1H-pyrazole-5-carboxylate]
10200 nM	N#Cc1ccc(Cn2ncc(NC(=O)c3cc(C(F)(F)F)nc4ccc(Br)cc34)c2C(=O)O)cc1 [Example 20, 4-({[6-bromo-2-(trifluoromethyl)quinolin-4-yl]carbonyl}amino)-1-(4-cyanobenzyl)-1H-pyrazole-5-carboxylic acid]
3960 nM	CNC(=O)c1c(NC(=O)c2cc(C(F)(F)F)nc3ccc(Br)cc23)cnn1Cc1ccc(C#N)cc1 [Example 21, 6-bromo-N-[1-(4-cyanobenzyl)-5-(methylcarbamoyl)-1H-pyrazol-4-yl]-2-(trifluoromethyl)quinoline-4-carboxamide]
387 nM	N#Cc1ccc(Cn2ncc(NC(=O)c3cc(C(F)(F)F)nc4ccc(Br)cc34)c2C(N)=O)cc1 [Example 22, 6-bromo-N-[5-carbamoyl-1-(4-cyanobenzyl)-1H-pyrazol-4-yl]-2-(trifluoromethyl)quinoline-4-carboxamide]
2.9 nM	Cc1c(NC(=O)c2cc(C3CC3)nc3ccc(Br)cc23)cnn1Cc1ccc(C#N)cc1 [Example 23, 6-bromo-N-[1-(4-cyanobenzyl)-5-methyl-1H-pyrazol-4-yl]-2-cyclopropylquinoline-4-carboxamide]
1200 nM	CCc1noc(Cn2ncc(NC(=O)c3cc(C(F)(F)F)nc4ccc(Br)cc34)c2C)n1 [Example 35, 6-bromo-N-{1-[(3-ethyl-1,2,4-oxadiazol-5-yl)methyl]-5-methyl-1H-pyrazol-4-yl}-2-(trifluoromethyl)quinoline-4-carboxamide]

More lines, now with the values behind:

Structure (SMILES)	IC50
COc1cc(C(=O)Nc2cnn(Cc3ccc(F)cc3)c2C)c2ccccc2n1 [Example 3, N-[1-(4-fluorobenzyl)-5-methyl-1H-pyrazol-4-yl]-2-methoxyquinoline-4-carboxamide]	152 nM
Cc1c(NC(=O)c2cc(C(N)=O)nc3ccccc23)cnn1Cc1ccc(F)cc1 [Example 5, N^4-[1-(4-fluorobenzyl)-5-methyl-1H-pyrazol-4-yl]quinoline-2,4-dicarboxamide]	18 nM
Cc1c(NC(=O)c2cc(C(N)=O)nc3ccccc23)cnn1Cc1ccc(C#N)cc1 [Example 9, N^4-[1-(4-cyanobenzyl)-5-methyl-1H-pyrazol-4-yl]quinoline-2,4-dicarboxamide]	8.9 nM
COc1ccc(Cn2ncc(NC(=O)c3cc(OC)nc4ccccc34)c2C)cc1 [Example 11, 2-methoxy-N-[1-(4-methoxybenzyl)-5-methyl-1H-pyrazol-4-yl]quinoline-4-carboxamide]	19 nM
COc1ccc(Cn2ncc(NC(=O)c3cc(C(N)=O)nc4ccccc34)c2C)cc1 [Example 13, N^4-[1-(4-methoxybenzyl)-5-methyl-1H-pyrazol-4-yl]quinoline-2,4-dicarboxamide]	2.2 nM
Cc1c(NC(=O)c2cc(C(N)=O)nc3ccccc23)cnn1Cc1ccccc1C#N [Example 15, N^4-[1-(2-cyanobenzyl)-5-methyl-1H-pyrazol-4-yl]quinoline-2,4-dicarboxamide]	755 nM
Cc1c(NC(=O)c2cc(C(N)=O)nc3cc(F)ccc23)cnn1Cc1ccc(C#N)cc1 [Example 24, N^4-[1-(4-cyanobenzyl)-5-methyl-1H-pyrazol-4-yl]-7-fluoroquinoline-2,4-dicarboxamide]	7.1 nM
Cc1c(NC(=O)c2cc(C(N)=O)nc3cc(F)c(Cl)cc23)cnn1Cc1ccc(C#N)cc1 [Example 25, 6-chloro-N^4-[1-(4-cyanobenzyl)-5-methyl-1H-pyrazol-4-yl]-7-fluoroquinoline-2,4-dicarboxamide]	6.5 nM
Cc1c(NC(=O)c2cc(C(N)=O)nc3ccccc23)cnn1Cc1ccc(F)c(F)c1 [Example 26, N^4-[1-(3,4-difluorobenzyl)-5-methyl-1H-pyrazol-4-yl]quinoline-2,4-dicarboxamide]	95 nM
Cc1c(NC(=O)c2cc(C(N)=O)nc3ccccc23)cnn1Cc1cccc(F)c1 [Example 27, N^4-[1-(3-fluorobenzyl)-5-methyl-1H-pyrazol-4-yl]quinoline-2,4-dicarboxamide]	52 nM
Cc1c(NC(=O)c2cc(C(N)=O)nc3ccccc23)cnn1CC1CCCCC1 [Example 28, N^4-[1-(cyclohexylmethyl)-5-methyl-1H-pyrazol-4-yl]quinoline-2,4-dicarboxamide]	349 nM
Cc1c(NC(=O)c2cc(C(N)=O)nc3ccccc23)cnn1Cc1ccncc1 [Example 29, N^4-[5-methyl-1-(pyridin-4-ylmethyl)-1H-pyrazol-4-yl]quinoline-2,4-dicarboxamide]	2150 nM
CCc1c(NC(=O)c2cc(C(N)=O)nc3cc(F)ccc23)cnn1Cc1ccc(C#N)cc1 [Example 30, N^4-[1-(4-cyanobenzyl)-5-ethyl-1H-pyrazol-4-yl]-7-fluoroquinoline-2,4-dicarboxamide]	46 nM
CCc1c(NC(=O)c2cc(C(N)=O)nc3ccccc23)cnn1Cc1ccc(C#N)cc1 [Example 31, N^4-[1-(4-cyanobenzyl)-5-ethyl-1H-pyrazol-4-yl]quinoline-2,4-dicarboxamide]	201 nM
CCc1c(NC(=O)c2cc(C(N)=O)nc3cc(F)c(Cl)cc23)cnn1Cc1ccc(C#N)cc1 [Example 32, 6-chloro-N^4-[1-(4-cyanobenzyl)-5-ethyl-1H-pyrazol-4-yl]-7-fluoroquinoline-2,4-dicarboxamide]	43 nM
CC(C)c1c(NC(=O)c2cc(C(N)=O)nc3cc(F)ccc23)cnn1Cc1ccc(C#N)cc1 [Example 33, N^4-[1-(4-cyanobenzyl)-5-isopropyl-1H-pyrazol-4-yl]-7-fluoroquinoline-2,4-dicarboxamide]	940 nM
Cc1c(NC(=O)c2cc(C(N)=O)nc3ccccc23)cnn1Cc1ccn(C)n1 [Example 34, N^4-{5-methyl-1-[(1-methyl-1H-pyrazol-3-yl)methyl]-1H-pyrazol-4-yl}quinoline-2,4-dicarboxamide]	753 nM
